Legend:
[1] = biological target: T1, A2A receptor in rat striatum (Rattus norvegicus, UniProt P30543); assay: Radioligand binding, displacement of [3H]ZM241385 from rat striatal membranes; conditions: [3H]ZM241385, rat striatal membranes;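 note: displacement assays run in the absence of GTP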
T1 construct: the A2A receptor in rat striatum; from tissue; host or cells: rat striatum
Procedure: Incubations were carried out for 1 hr at 37° C. and were terminated by rapid filtration over Whatman GF/B filters, using a Brandell cell harvester (Brandell, Gaithersburg, Md.). Tubes were washed three times with 3 ml of buffer. Radioactivity was determined in a Beckman 5500B γ-counter. Nonspecific binding was determined in the presence of 10^−5 M R-PIA.
All compounds were tested in radioligand binding assays to determine their affinities for the adenosine A1 receptor in rat brain cortex, the A2A receptor in rat striatum and the human A3 receptor as expressed in HEK 293 cells (Table 2). […] AB-MECA, an A3 receptor agonist, was also used. Displacement experiments were performed in the absence of GTP.

[2] = biological target: T2, human adenosine A1 receptors expressed in CHO cells (Homo sapiens, UniProt P30542); assay: cAMP assay A1 (inhibition of forskolin-induced cAMP production); assay type: cell-based; conditions: compared to reference full agonist CPA (10 μM) in A1 CHO cells; tested at ±100 × Ki; ±SEM, n = 3; forskolin 10 μM
T2 construct: expressed in transfected cells; host or cells: CHO cells
T2 sequence (P30542 1-326): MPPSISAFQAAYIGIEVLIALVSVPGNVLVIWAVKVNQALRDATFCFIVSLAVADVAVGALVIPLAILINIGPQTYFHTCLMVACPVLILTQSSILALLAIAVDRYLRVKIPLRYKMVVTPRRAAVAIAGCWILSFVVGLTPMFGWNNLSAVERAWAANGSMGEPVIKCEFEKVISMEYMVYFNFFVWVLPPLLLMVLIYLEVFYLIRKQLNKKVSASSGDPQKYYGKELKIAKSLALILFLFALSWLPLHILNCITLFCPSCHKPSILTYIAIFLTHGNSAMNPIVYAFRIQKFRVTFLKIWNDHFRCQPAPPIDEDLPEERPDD
Procedure: cAMP assay A1 and A3 CHO cells expressing either the human adenosine A1 or A3 receptor were grown overnight as a monolayer in 24 wells tissue culture plates (400 μl/well; 2×10^5cells/well). cAMP generation was performed in Dulbecco's Modified Eagles Medium (DMEM)/N-2-hydroxyethylpiperazin-N′-2-ethansulfonic acid (HEPES) buffer (0.60 g HEPES/50 ml DMEM pH 7.4). […] After incubation for 40 minutes at 37° C., 100 μl forskolin (final concentration 10 μM) was added. After 15 minutes at 37° C., the reaction was terminated by removing the medium and adding 200 μL 0.1 M HCl. Wells were stored at −20° C. until assay
The amounts of cAMP were determined after a protocol with cAMP binding protein^28 with the following minor modifications. As a buffer was used 150 mM K2HPO4/10 mM EDTA/0.2% Bovine Serum Albumine (BSA) at pH 7.5. Samples (20 μl+30 μl 0.1 M HCl) were incubated for at least 2.5 hours at 0° C. before filtration over Whatman GF/B filters. Filters were additionally rinsed with 2×2 ml TrisHCl buffer (pH 7.4, 4° C.). Filters were counted in Packard Emulsifier Safe scintillation fluid (3.5 ml) after 24 hours of extraction. […]

T1 sequence (P30543 whole entry): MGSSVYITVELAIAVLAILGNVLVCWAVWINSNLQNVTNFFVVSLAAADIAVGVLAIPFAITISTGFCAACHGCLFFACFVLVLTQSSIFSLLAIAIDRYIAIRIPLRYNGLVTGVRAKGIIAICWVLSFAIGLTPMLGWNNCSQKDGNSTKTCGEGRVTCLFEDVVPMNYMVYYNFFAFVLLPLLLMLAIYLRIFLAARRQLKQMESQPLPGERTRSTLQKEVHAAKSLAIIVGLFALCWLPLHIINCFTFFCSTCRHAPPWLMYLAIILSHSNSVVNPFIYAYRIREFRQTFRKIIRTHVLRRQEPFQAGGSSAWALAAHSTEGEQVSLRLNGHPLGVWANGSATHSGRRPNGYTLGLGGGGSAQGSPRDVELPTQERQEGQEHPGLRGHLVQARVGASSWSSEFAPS

Ki [1] [nM]	% inhib. A1 of forskolin-induced cAMP [2] [%]	melting point [°C]	SMILES
261 ± 65	75 ± 3	112 to 114	COC[C@H]1O[C@@H](n2cnc3c(N)ncnc32)[C@H](O)[C@@H]1O [Compound 66, 5′-O-methyladenosine]
284 ± 55	78 ± 4	200 to 202	COC[C@H]1O[C@@H](n2cnc3c(N)nc(Cl)nc32)[C@H](O)[C@@H]1O [Compound 69, 2-Chloro-5′-O-methyladenosine]
415 ± 69	57 ± 11	110 to 112	CCOC[C@H]1O[C@@H](n2cnc3c(N)ncnc32)[C@H](O)[C@@H]1O [Compound 72, 5′-O-Ethyladenosine]
659 ± 168	67 ± 7	117 to 119	CCOC[C@H]1O[C@@H](n2cnc3c(N)nc(Cl)nc32)[C@H](O)[C@@H]1O [Compound 75, 2-Chloro-5′-O-ethyladenosine]
885 ± 89	49 ± 9	122 to 124	Nc1nc(Cl)nc2c1ncn2[C@@H]1O[C@H](COC2CC2)[C@@H](O)[C@H]1O [Compound 81, 2-Chloro-5′-O-cyclopropyladenosine]
